According to patent publication US20190119645A1, “GENERATION OF ADULT-LIKE HEART MUSCLE FROM HUMAN PLURIPOTENT STEM CELLS” (The Johns Hopkins University, priority 2015, published 2019):

Legend:
hiPSC-derived neurons = assay: Patch-clamp recording of spontaneous synaptic events in hiPSC-derived neurons; type: cell-based, human; conditions: 10 μM; hiPSC-derived neurons in slices and in cultures; applied with Bic
Description: (§1) Transverse brain slices of 350 μm thickness were prepared at 8 weeks after differentiated hiPSC cells injection using a vibratome (Leica VT1200S). Slices were incubated in artificial cerebrospinal fluid (ACSF) containing (in mM): NaCl 125, KCl 2.5, MgSO4 1, NaH2PO4 1.25, NaHCO3 26, CaCl2 2, and D-glucose 10. Slices were maintained in ACSF and continuously bubbled with 95% O2 and 5% CO2, first at 34° C. for 30 min, and then at room temperature. A single slice was transferred into a submerged recording chamber and perfused constantly with carbogen-equilibrated ACSF at a rate of 2 ml/min Injected human neurons expressing RFP were visualized under a 40× water immersion objective by fluorescence and DIC optics (Carl Zeiss, Germany). […] Resting membrane potential (RMP) was recorded in current clamp mode at 0 pA immediately after establishing whole-cell configuration. Series resistance (Rseries) and input resistance (Rin) were calculated from a 5 mV pulse and monitored throughout the experiment. […]
(§2) For voltageclamp experiments, the membrane potential was typically held at −70 mV. […] Data were acquired by PatchMaster software (HEKA Elektronik, Lambrech, Germany) Na^+ and K^+ currents and action potentials were analyzed using Clampfit 10.5 software (Molecular devices, Palo Alto, Calif., USA). Spontaneous synaptic events were analyzed using MiniAnalysis software (Synaptosoft, Decatur, Ga., USA). […]

[1] = test system: functional sodium and potassium channels in hiPSC-neurons; assay: Voltage-clamp recording of Na+ and K+ currents in hiPSC-derived neurons; type: cell-based, human; conditions: depolarizing voltage steps; hiPSC-neurons after 8 weeks of maturation
Description: as §1, §2

Structure (SMILES): N#Cc1cc2c(cc1[N+](=O)[O-])=NC(=O)C(=O)N=2 [CNQX, 6-Cyano-7-nitroquinoxaline-2,3-dione]
- spontaneous synaptic events (hiPSC-derived neurons): blocked

Structure (SMILES): CC[N+](CC)(CC)CC [TEA]
- voltage-dependent inward and outward currents, sensitivity [1]: selectively sensitive
